Reference: patent US11214803B2, “Modulators of YAP1 expression” (Ionis Pharmaceuticals, Inc., priority 2019, dated 2022)
Strand notation (5' to 3'): a small letter for the sugar, then the base; units joined by * are phosphorothioate-linked, units joined directly phosphodiester-linked; [ ] holds rarer units or linkages, { } end groups; capitals alone tell only the bases. k = constrained ethyl (cEt); [5mC] = 5-methylcytosine; d = 2'-deoxy (DNA)

System: Yap1 mRNA
Assay: Dose-dependent inhibition of human Yap1 in A-431 cells (Example 7, 10,000 cells per well, RTS36584)
Format: cell-based
Conditions: free uptake
Summary of the method: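 A-431 cells at 10,000 per well received modified oligonucleotides by free uptake at several doses. After about 48 hours, Yap1 mRNA was quantified with primer-probe set RTS36584, normalized to RIBOGREEN total RNA and expressed as % untreated control. IC50 came from linear regression on a log/linear plot.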

[1] = Table 57, 15.6 nM, A-431 cells 10,000 cells per well, 48 hours
[2] = Table 57, 62.5 nM, A-431 cells 10,000 cells per well, 48 hours
[3] = Table 57, 4000.00 nM, A-431 cells 10,000 cells per well, 48 hours
[4] = Table 57, A-431 cells 10,000 cells per well
[5] = Table 59, 15.6 nM, A-431 cells 10,000 cells per well, 48 hours
[6] = Table 59, 62.5 nM, A-431 cells 10,000 cells per well, 48 hours
[7] = Table 59, 4000.00 nM, A-431 cells 10,000 cells per well, 48 hours
[8] = Table 59, A-431 cells 10,000 cells per well
[9] = 15.6 nM, A-431 cells, 10,000 cells per well, approximately 48 hours
[10] = 62.5 nM, A-431 cells, 10,000 cells per well, approximately 48 hours
[11] = 4000.00 nM, A-431 cells, 10,000 cells per well, approximately 48 hours
[12] = A-431 cells, approximately 48 hours, linear regression on log/linear plot

## 958593 (kG*kG*kT*d[5mC]*dA*dG*dT*dA*d[5mC]*dA*dG*dA*dG*kG*kG*k[5mC]; antisense) [compound 958593]
Table 60, 15.6 nM, A-431 cells 10,000 cells per well, 48 hours
  Yap1 mRNA, % UTC: 99 % UTC
Table 60, 62.5 nM, A-431 cells 10,000 cells per well, 48 hours
  Yap1 mRNA, % UTC: 60 % UTC
Table 60, 4000.00 nM, A-431 cells 10,000 cells per well, 48 hours
  Yap1 mRNA, % UTC: 15 % UTC
Table 60, A-431 cells 10,000 cells per well
  IC50: 100 nM

## 958481 (kG*k[5mC]*kA*dA*d[5mC]*dT*dG*dG*d[5mC]*dT*dT*dA*dT*kG*kG*kA; antisense) [compound 958481]
[1]
  Yap1 mRNA, % UTC: 86 % UTC
[2]
  Yap1 mRNA, % UTC: 62 % UTC
[3]
  Yap1 mRNA, % UTC: 14 % UTC
[4]
  IC50: 100 nM

## 958798 (kT*kG*k[5mC]*dA*dG*dT*dA*dT*dA*dA*dT*dA*dT*k[5mC]*k[5mC]*kT; antisense) [compound 958798]
[5]
  Yap1 mRNA, % UTC: 101 % UTC
[6]
  Yap1 mRNA, % UTC: 61 % UTC
[7]
  Yap1 mRNA, % UTC: 12 % UTC
[8]
  IC50: 100 nM

## 958761 (kA*kG*kT*d[5mC]*dT*d[5mC]*dA*dA*d[5mC]*dA*dA*d[5mC]*d[5mC]*kT*kT*k[5mC]; antisense) [compound 958761]
[1]
  Yap1 mRNA, % UTC: 84 % UTC
[2]
  Yap1 mRNA, % UTC: 73 % UTC
[3]
  Yap1 mRNA, % UTC: 24 % UTC
[4]
  IC50: 200 nM

## 958451 (antisense k[5mC]*kA*k[5mC]*dG*dA*dT*d[5mC]*dT*dG*dA*dT*dG*d[5mC]*k[5mC]*k[5mC]*kG) [compound 958451]
[1]
  Yap1 mRNA, % UTC: 98 % UTC
[2]
  Yap1 mRNA, % UTC: 74 % UTC
[3]
  Yap1 mRNA, % UTC: 23 % UTC
[4]
  IC50: 200 nM

## 958518 (k[5mC]*k[5mC]*kA*d[5mC]*dA*dG*dT*dA*dA*dT*dA*dG*d[5mC]*kT*k[5mC]*kT; antisense) [compound 958518]
[5]
  Yap1 mRNA, % UTC: 95 % UTC
[6]
  Yap1 mRNA, % UTC: 55 % UTC
[7]
  Yap1 mRNA, % UTC: 4 % UTC
[8]
  IC50: 100 nM

## 958599 (kT*kT*k[5mC]*dA*dA*dG*dA*dA*dT*dA*d[5mC]*d[5mC]*d[5mC]*kA*kG*kT; antisense) [compound 958599]
Table 61, 15.6 nM, A-431 cells 10,000 cells per well, 48 hours
  Yap1 mRNA, % UTC: 100 % UTC
Table 61, 62.5 nM, A-431 cells 10,000 cells per well, 48 hours
  Yap1 mRNA, % UTC: 74 % UTC
Table 61, 4000.00 nM, A-431 cells 10,000 cells per well, 48 hours
  Yap1 mRNA, % UTC: 16 % UTC
Table 61, A-431 cells 10,000 cells per well
  IC50: 200 nM

## 958595 (k[5mC]*k[5mC]*kA*d[5mC]*dA*dT*d[5mC]*dA*dA*dG*dG*d[5mC]*dT*kA*kT*kG; antisense) [compound 958595]
[9]
  Yap1 mRNA, % UTC: 83 % UTC
[10]
  Yap1 mRNA, % UTC: 57 % UTC
[11]
  Yap1 mRNA, % UTC: 16 % UTC
[12]
  IC50: 100 nM

## 958485 (kA*kG*kA*dG*dG*dT*d[5mC]*dA*dG*d[5mC]*dA*dA*dT*kA*k[5mC]*kA; antisense) [compound 958485]
[9]
  Yap1 mRNA, % UTC: 68 % UTC
[10]
  Yap1 mRNA, % UTC: 38 % UTC
[11]
  Yap1 mRNA, % UTC: 8 % UTC
[12]
  IC50: 40 nM

## 958373 (antisense kA*kG*kG*dT*dG*d[5mC]*dT*dA*dG*d[5mC]*dT*dG*dG*kT*kG*k[5mC]) [compound 958373]
Table 56, 15.6 nM, A-431 cells 10,000 cells per well, 48 hours
  Yap1 mRNA, % UTC: 72 % UTC
Table 56, 62.5 nM, A-431 cells 10,000 cells per well, 48 hours
  Yap1 mRNA, % UTC: 45 % UTC
Table 56, 4000.00 nM, A-431 cells 10,000 cells per well, 48 hours
  Yap1 mRNA, % UTC: 17 % UTC
Table 56, A-431 cells 10,000 cells per well
  IC50: 50 nM

## 958781 (kG*kT*k[5mC]*dA*dT*d[5mC]*dT*dA*dT*dG*dT*dG*dT*k[5mC]*k[5mC]*kT; antisense) [compound 958781]
[1]
  Yap1 mRNA, % UTC: 77 % UTC
[2]
  Yap1 mRNA, % UTC: 45 % UTC
[3]
  Yap1 mRNA, % UTC: 10 % UTC
[4]
  IC50: 100 nM

## 958500 (kT*k[5mC]*kT*dA*dT*dA*dT*dT*dA*dG*dA*dG*dT*kA*kT*kG) [compound 958500]
[9]
  Yap1 mRNA, % UTC: 91 % UTC
[10]
  Yap1 mRNA, % UTC: 63 % UTC
[11]
  Yap1 mRNA, % UTC: 16 % UTC
[12]
  IC50: 100 nM

## 958580 (kA*kT*kA*dA*dT*d[5mC]*dT*dT*dA*dA*dT*d[5mC]*dT*kG*kT*kG; antisense) [compound 958580]
[9]
  Yap1 mRNA, % UTC: 95 % UTC
[10]
  Yap1 mRNA, % UTC: 59 % UTC
[11]
  Yap1 mRNA, % UTC: 9 % UTC
[12]
  IC50: 100 nM

## 958735 (kA*kG*k[5mC]*dA*dA*dT*d[5mC]*dT*dT*dG*dT*dG*dG*kA*kT*k[5mC]; antisense) [compound 958735]
[9]
  Yap1 mRNA, % UTC: 116 % UTC
[10]
  Yap1 mRNA, % UTC: 69 % UTC
[11]
  Yap1 mRNA, % UTC: 23 % UTC
[12]
  IC50: 200 nM
